We go through 15 compounds from US10314823B2, “Substituted 1,2-dihydro-3H-pyrrolo[1,2-c]imidazol-3-one antibacterial compounds” (IDORSIA PHARMACEUTICALS LTD, priority 2015, dated 2019).

Converted amounts (≈) assume the structure as drawn.

Assay in all cases: Bacterial growth minimal inhibitory concentration (CLSI broth microdilution)
Holding throughout (format): cell-based
For orientation: Broth dilution looks for growth in wells or tubes with falling amounts of substance.

One test concerns K. pneumoniae A-651. As to conditions: Klebsiella pneumoniae, A651; multiply resistant strain (in particular quinolone-resistant); cation-adjusted Mueller-Hinton Broth. The protocol: (§1) Minimal Inhibitory Concentrations (MICs; mg/L) were determined in cation-adjusted Mueller-Hinton Broth by a microdilution method following the description given in “Methods for Dilution Antimicrobial Susceptibility Tests for Bacteria that Grow Aerobically”, Approved standard, 7th ed., Clinical and Laboratory Standards Institute (CLSI) Document M7-A7, Wayne, Pa., USA (2006).
(§2) All Reference Example compounds were tested against several Gram-negative bacteria. K. pneumoniae A-651 is a multiply resistant strain (in particular quinolone-resistant), while E. coli ATCC25922 and P. aeruginosa ATCC27853 are quinolone-sensitive strains. The corresponding antibacterial test results are given in Table 1 hereafter (MICs in mg/L).

Another test has as its system E. coli ATCC25922. As to conditions: Escherichia coli, ATCC25922; quinolone-sensitive strain; cation-adjusted Mueller-Hinton Broth. The protocol: as §1, §2
The next test deals with P. aeruginosa ATCC27853. The note with it: Pseudomonas aeruginosa, ATCC27853; quinolone-sensitive strain; cation-adjusted Mueller-Hinton Broth. The protocol:
as §1, §2

In the case of `C[C@@](CCN1Cc2cc(C#Cc3ccc(CN4CC5(COC5)C4)cc3)cn2C1=O)(C(=O)NO)S(C)(=O)=O` [Example 3, (2R)-4-(6-((4-((2-oxa-6-azaspiro[3.3]heptan-6-yl)methyl)phenyl)ethynyl)-3-oxo-1H-pyrrolo[1,2-c]imidazol-2(3H)-yl)-N-hydroxy-2-methyl-2-(methylsulfonyl)butanamide], the values for the MIC with K. pneumoniae A-651, with E. coli ATCC25922 and against P. aeruginosa ATCC27853 were 1 µg/mL (≈ 1.9 µM), 0.25 µg/mL (≈ 0.475 µM) and 1 µg/mL (≈ 1.9 µM), respectively.

For `C[C@@](CCN1Cc2cc(C#Cc3ccc(CN4CC5C(N)C5C4)cc3)cn2C1=O)(C(=O)NO)S(C)(=O)=O` (stereo partly drawn) [Example 4, (2R)-4-(6-((4-((6-amino-3-azabicyclo[3.1.0]hexan-3-yl)methyl)phenyl)ethynyl)-3-oxo-1H-pyrrolo[1,2-c]imidazol-2(3H)-yl)-N-hydroxy-2-methyl-2-(methylsulfonyl)butanamide], the MIC against K. pneumoniae A-651, against E. coli ATCC25922 and against P. aeruginosa ATCC27853 was 2 µg/mL (≈ 3.8 µM) each time.

For the compound `C[C@@](CCN1Cc2cc(C#Cc3ccc(COC(=O)N4CCC(O)CC4)cc3)cn2C1=O)(C(=O)NO)S(C)(=O)=O` [Example 5, (3R)-4-((2-(4-(hydroxyamino)-3-methyl-3-(methylsulfonyl)-4-oxobutyl)-3-oxo-2,3-dihydro-1H-pyrrolo[1,2-c]imidazol-6-yl)ethynyl)benzyl 4-hydroxypiperidine-1-carboxylate], the MIC (in general, the least concentration at which growth counts as inhibited) was determined as 1 µg/mL (≈ 1.75 µM) in the test with K. pneumoniae A-651, 0.25 µg/mL (≈ 0.437 µM) with E. coli ATCC25922 and 2 µg/mL (≈ 3.49 µM) against P. aeruginosa ATCC27853.

As for `CC(=O)N1CC(O)(c2ccc(C#Cc3cc4n(c3)C(=O)N(CC[C@](C)(C(=O)NO)S(C)(=O)=O)C4)cc2)C1` [Example 6, (2R)-4-(6-((4-(1-acetyl-3-hydroxyazetidin-3-yl)phenyl)ethynyl)-3-oxo-1H-pyrrolo[1,2-c]imidazol-2(3H)-yl)-N-hydroxy-2-methyl-2-(methylsulfonyl)butanamide], the figures for the MIC in the test on K. pneumoniae A-651, against E. coli ATCC25922 and against P. aeruginosa ATCC27853 were 4 µg/mL (≈ 7.57 µM), 2 µg/mL (≈ 3.78 µM) and 1 µg/mL (≈ 1.89 µM), respectively.

Turning to `C[C@@](CCN1Cc2cc(C#CC#C[C@@H]3C[C@H]3[C@H](O)CO)cn2C1=O)(C(=O)NO)S(C)(=O)=O` [Example 7, (2R)-4-(6-(((1R,2R)-2-((S)-1,2-dihydroxyethyl)cyclopropyl)buta-1,3-diyn-1-yl)-3-oxo-1H-pyrrolo[1,2-c]imidazol-2(3H)-yl)-N-hydroxy-2-methyl-2-(methylsulfonyl)butanamide], the MIC turned out to be 2 µg/mL (≈ 4.31 µM) against K. pneumoniae A-651, 0.5 µg/mL (≈ 1.08 µM) in the test with E. coli ATCC25922 and 0.5 µg/mL (≈ 1.08 µM) in the test on P. aeruginosa ATCC27853.

On to `C[C@@](CCN1Cc2cc(C#CC#CCOC(=O)N3CCC(O)CC3)cn2C1=O)(C(=O)NO)S(C)(=O)=O` [Example 8, (3R)-5-(2-(4-(hydroxyamino)-3-methyl-3-(methylsulfonyl)-4-oxobutyl)-3-oxo-2,3-dihydro-1H-pyrrolo[1,2-c]imidazol-6-yl)penta-2,4-diyn-1-yl 4-hydroxypiperidine-1-carboxylate], for which the MIC stood at 2 µg/mL (≈ 3.84 µM) against K. pneumoniae A-651, 1 µg/mL (≈ 1.92 µM) against E. coli ATCC25922 and 2 µg/mL (≈ 3.84 µM) with P. aeruginosa ATCC27853.

Consider `C[C@@](CCN1Cc2cc(C#CC#CCN3CCOC3=O)cn2C1=O)(C(=O)NO)S(C)(=O)=O` [Example 9, (2R)—N-hydroxy-2-methyl-2-(methylsulfonyl)-4-(3-oxo-6-(5-(2-oxooxazolidin-3-yl)penta-1,3-diyn-1-yl)-1H-pyrrolo[1,2-c]imidazol-2(3H)-yl)butanamide], for which the MIC with K. pneumoniae A-651 was determined as 4 µg/mL (≈ 8.65 µM); against E. coli ATCC25922, 2 µg/mL (≈ 4.32 µM); against P. aeruginosa ATCC27853 it was 8 µg/mL (≈ 17.3 µM).

With `C[C@@](CCN1Cc2cc(C#Cc3ccc(COC(=O)N4CC(O)C4)cc3)cn2C1=O)(C(=O)NO)S(C)(=O)=O` [Example 10, (3R)-4-((2-(4-(hydroxyamino)-3-methyl-3-(methylsulfonyl)-4-oxobutyl)-3-oxo-2,3-dihydro-1H-pyrrolo[1,2-c]imidazol-6-yl)ethynyl)benzyl 3-hydroxyazetidine-1-carboxylate], the minimal inhibitory concentration (MIC) with K. pneumoniae A-651 came out at 0.25 µg/mL (≈ 0.459 µM); against E. coli ATCC25922, 0.25 µg/mL (≈ 0.459 µM); against P. aeruginosa ATCC27853, 1 µg/mL (≈ 1.84 µM).

As to `CN(CCO)C(=O)OCc1ccc(C#Cc2cc3n(c2)C(=O)N(CC[C@](C)(C(=O)NO)S(C)(=O)=O)C3)cc1` [Example 11, (3R)-4-((2-(4-(hydroxyamino)-3-methyl-3-(methylsulfonyl)-4-oxobutyl)-3-oxo-2,3-dihydro-1H-pyrrolo[1,2-c]imidazol-6-yl)ethynyl)benzyl (2-hydroxyethyl)(methyl)carbamate], the figures for the MIC against K. pneumoniae A-651, with E. coli ATCC25922 and against P. aeruginosa ATCC27853 were 0.5 µg/mL (≈ 0.915 µM), 0.5 µg/mL (≈ 0.915 µM) and 2 µg/mL (≈ 3.66 µM), respectively.

On to `C[C@@](CCN1Cc2cc(C#Cc3ccc(CN4CCC(N)C(F)(F)C4)cc3)cn2C1=O)(C(=O)NO)S(C)(=O)=O` (stereo partly drawn) [Example 14, (2R)-4-(6-((4-((4-amino-3,3-difluoropiperidin-1-yl)methyl)phenyl)ethynyl)-3-oxo-1H-pyrrolo[1,2-c]imidazol-2(3H)-yl)-N-hydroxy-2-methyl-2-(methylsulfonyl)butanamide], for which the MIC in the test on K. pneumoniae A-651 turned out to be 2 µg/mL (≈ 3.55 µM); in the test on E. coli ATCC25922 it was 0.5 µg/mL (≈ 0.887 µM); against P. aeruginosa ATCC27853 it was 1 µg/mL (≈ 1.77 µM).

Take `C[C@@](CCN1Cc2cc(C#Cc3ccc(C4(F)CNC4)cc3)cn2C1=O)(C(=O)NO)S(C)(=O)=O` [Example 15, (2R)-4-(6-((4-(3-fluoroazetidin-3-yl)phenyl)ethynyl)-3-oxo-1H-pyrrolo[1,2-c]imidazol-2(3H)-yl)-N-hydroxy-2-methyl-2-(methylsulfonyl)butanamide]: the results for the MIC with K. pneumoniae A-651, in the test with E. coli ATCC25922 and in the test on P. aeruginosa ATCC27853 were 2 µg/mL (≈ 4.09 µM), 0.5 µg/mL (≈ 1.02 µM) and 1 µg/mL (≈ 2.05 µM), respectively.

For the compound `C[C@@](CCN1Cc2cc(C#Cc3ccc(C4(F)CN(C5COC5)C4)cc3)cn2C1=O)(C(=O)NO)S(C)(=O)=O` [Example 16, (2R)-4-(6-((4-(3-fluoro-1-(oxetan-3-yl)azetidin-3-yl)phenyl)ethynyl)-3-oxo-1H-pyrrolo[1,2-c]imidazol-2(3H)-yl)-N-hydroxy-2-methyl-2-(methylsulfonyl)butanamide], the MIC in the test with K. pneumoniae A-651 was determined as 0.5 µg/mL (≈ 0.918 µM); with E. coli ATCC25922, 0.25 µg/mL (≈ 0.459 µM); against P. aeruginosa ATCC27853 it was 1 µg/mL (≈ 1.84 µM).

Turning to `CN1CCN(C(=O)OCc2ccc(C#Cc3cc4n(c3)C(=O)N(CC[C@](C)(C(=O)NO)S(C)(=O)=O)C4)cc2)CC1` [Example 17, (3R)-4-((2-(4-(hydroxyamino)-3-methyl-3-(methylsulfonyl)-4-oxobutyl)-3-oxo-2,3-dihydro-1H-pyrrolo[1,2-c]imidazol-6-yl)ethynyl)benzyl 4-methylpiperazine-1-carboxylate], the MIC worked out at 0.5 µg/mL (≈ 0.875 µM) in the test with K. pneumoniae A-651, 0.25 µg/mL (≈ 0.437 µM) in the test with E. coli ATCC25922 and 2 µg/mL (≈ 3.5 µM) in the test on P. aeruginosa ATCC27853.

As to `C[C@@](CCN1Cc2cc(C#CC#CC3(F)CNC3)cn2C1=O)(C(=O)NO)S(C)(=O)=O` [Example 18, (2R)-4-(6-((3-fluoroazetidin-3-yl)buta-1,3-diyn-1-yl)-3-oxo-1H-pyrrolo[1,2-c]imidazol-2(3H)-yl)-N-hydroxy-2-methyl-2-(methylsulfonyl)butanamide], the MIC is 4 µg/mL (≈ 9.16 µM) with K. pneumoniae A-651, 2 µg/mL (≈ 4.58 µM) in the test on E. coli ATCC25922 and 2 µg/mL (≈ 4.58 µM) with P. aeruginosa ATCC27853.

For the compound `C[C@@](CCN1Cc2cc(C#CC#CC3(F)CN(C4COC4)C3)cn2C1=O)(C(=O)NO)S(C)(=O)=O` [Example 19, (2R)-4-(6-((3-fluoro-1-(oxetan-3-yl)azetidin-3-yl)buta-1,3-diyn-1-yl)-3-oxo-1H-pyrrolo[1,2-c]imidazol-2(3H)-yl)-N-hydroxy-2-methyl-2-(methylsulfonyl)butanamide], the values for the MIC in the test with K. pneumoniae A-651, in the test on E. coli ATCC25922 and against P. aeruginosa ATCC27853 were 1 µg/mL (≈ 2.03 µM), 0.25 µg/mL (≈ 0.508 µM) and 2 µg/mL (≈ 4.06 µM), respectively.
